Each structure is given as a SMILES string.

Broadly, the IC50 is the concentration at which inhibition is half-maximal.

The target of the assay is T1, cGMP-PDE prepared from the swine aeorta (Sus scrofa, UniProt A0A287B475).
T1 construct: The swine aeorta was sliced; from tissue; host or cells: swine aorta, 100000×g supernatant, DEAE-Toyopearl 650S fraction
Description: Enzyme inhibiting action with the use of cGMP-PDE prepared from the swine aorta. In kind it is biochemical. The following applies: CaM-independent cGMP-PDE, 1 mM EGTA, 1 μM cGMP substrate, DMSO 4% or below. The protocol:
Enzyme inhibiting action with the use of cGMP-PDE prepared from the swine aeorta
The enzymatic activity of the cGMP-PDE prepared from the swine aeorta was determined according to the method of Thompson et al. ^(1). The enzymatic activity thereof was determined in the presence of 1 mM EGTA by the use of 1 μM cGMP as a substrate. The compound of the present invention was dissolved in DMSO, added to the reaction liquid and examined for the inhibitory activity. The final concentration of DMSO in the reaction liquid was adjusted to 4% or below. (1) Thompson, W. J. and Strada, S. J., Cyclic Nucleotide Phosphodiesterase (PDE), in Methods of Enzymatic Analysis, vol 4, p.127-234, 1984.
The swine aeorta was sliced, followed by the addition of 10 times by volume as much Buffer A (20 mM Tris/HCl, 2 mM Mg acetate, 1 mM Dithiothreitol, 5 mM EDTA, 1400 TIU/liter aprotinin, 10 mg/liter leupeptin, 1 mM benzamidine, 0.2 mM PMSF, pH 7.5). The obtained mixture was homogenized and the homogenate was centrifuged at 100000×g for one hour. The obtained supernatant was supplied a DEAE-Toyopearl 650S (Tosoh, Tokyo, Japan) column. After the column was washed with Buffer B (50 mM Tris/HCl, 0.1 mM EGTA, 2 mM Mg acetate, 1 mM Dithiothreitol, 0.2 mM PMSF, pH 7.5), gradient elution with 0.05 to 0.4M NaCl was conducted. Thus, CaM-independent cGMP-PDE fractions were obtained.
In turn, `COc1ccc(CNc2ncnc3c(OC)c(OC)c(OC)cc23)cc1` [Example 7, 4-(4-Methoxybenzyl)amino-6,7,8-trimethoxyquinazoline] had an IC50 of 1000 nM.
Then `COc1cc2c(NCc3ccc(Cl)c(Cl)c3)ncnc2c(OC)c1OC` [Example 19, 4-(3,4-Dichlorobenzyl)amino-6,7,8-trimethoxyquinazoline], with 390 nM; and `COc1ccc(CNc2ncnc3c(OC)c(OC)c(OC)cc23)cc1F` [Example 22, 4-(3-Fluoro-4-methoxybenzyl)amino-6,7,8-trimethoxyquinazoline], with 360 nM; and `COc1cc2c(NCc3ccc4c(c3)OCCO4)ncnc2c(OC)c1OC` [Example 25, 4-(4-Ethylenedioxybenzyl)amino-6,7,8-trimethoxyquinazoline], with 780 nM.
Compound `COc1cc2c(NCc3cc4c(cc3Cl)OCO4)ncnc2c(OC)c1OC` [Example 33, 4-(2-Chloro-4,5-methylenedioxybenzyl)amino-6,7,8-trimethoxyquinazoline] yielded a 50% inhibitory concentration (IC50) of 370 nM.
Under `COc1cc2c(NC(C)c3ccc4c(c3)OCO4)ncnc2c(OC)c1OC` (stereo not drawn) [Example 38, 4-(α-Methyl-3,4-methylenedioxybenzyl)amino-6,7,8-trimethoxyquinazolin] stands 420 nM; under `CCN(Cc1ccc2c(c1)OCO2)c1ncnc2c(OC)c(OC)c(OC)cc12` [Example 40], 650 nM.
Then `CCOC(=O)CN(Cc1ccc2c(c1)OCO2)c1ncnc2c(OC)c(OC)c(OC)cc12` [Example 41, 4-[N-(Ethoxycarbonylmethyl)-(3,4-methylenedioxybenzyl)amino]-6,7,8-trimethoxyquinazoline], with 350 nM; and `COCCN(Cc1ccc2c(c1)OCO2)c1ncnc2c(OC)c(OC)c(OC)cc12` [Example 42, 4-[N-(2-Methoxyethyl)-(3,4-methylenedioxybenzyl)-amino]-6,7,8-trimethoxyquinazoline], with 190 nM.
Under `COc1ccc2ncnc(NCc3ccc4nc[nH]c4c3)c2c1` [Example 45, 4-(Benzimidazol-5-ylmethyl)amino-6-methoxyquinazoline] stands 410 nM; under `COc1ccc2ncnc(NCc3ccc4c(c3)OCO4)c2c1` [Example 46, 4-(3,4-Methylenedioxybenzyl)amino-6-methoxyquinazoline], 240 nM.
Regarding `CSc1ccc2ncnc(NCc3ccc(Cl)c(Cl)c3)c2c1` [Example 50, 4-(3,4-Dichlorobenzyl)amino-6-methylthioquinazoline], it took 32 nM to reach half-maximal inhibition (IC50).
Under `COc1ccc(CNc2ncnc3ccc(SC)cc23)cc1F` [Example 51, 4-(3-Fluoro-4-methoxybenzyl)amino-6-methylthioquinazoline] stands 69 nM; under `CSc1ccc2ncnc(NCc3ccc4nc[nH]c4c3)c2c1` [Example 52, 4-(Benzimidazol-5-ylmethyl)amino-6-methylthioquinazoline], 69 nM; under `COCCN(Cc1ccc2c(c1)OCO2)c1ncnc2ccc(SC)cc12` [Example 53, 4-[N-(2-Methoxyethyl)-(3,4-methylenedioxybenzyl)amino]-6-methylthioquinazoline], 120 nM.
Then `CSc1ccc2ncnc(N(CCO)Cc3ccc4c(c3)OCO4)c2c1` [Example 54, 4-[N-(2-Hydroxyethyl)-(3,4-methylenedioxybenzyl)amino]-6-methylthioquinazoline], with 470 nM; and `O=[N+]([O-])c1cc(CNc2ncnc3ccc(Cl)cc23)ccc1Cl` [Example 55], with 30 nM.
Under `Clc1ccc2ncnc(NCc3ccc(Cl)c(Cl)c3)c2c1` [Example 58, 4-(3,4-Dichlorobenzyl)amino-6-chloroquinazoline] stands 42 nM; under `COc1ccc(CNc2ncnc3ccc(Cl)cc23)cc1OC` [Example 59, 4-(3,4-Dimethoxybenzyl)amino-6-chloroquinazoline], 270 nM; under `Clc1ccc2ncnc(NCc3ccc4nc[nH]c4c3)c2c1` [Example 60, 4-(Benzimidazol-5-ylmethyl)amino-6-chloroquinazoline], 180 nM.
`COC1Cc2cc(CNc3ncnc4ccc(Cl)cc34)ccc2O1` (stereo not shown) [Example 61, 4-(2-Methoxy-2,3-dihydrobenzofuran-5-yl)methylamino6-chloroquinazoline] displayed an IC50 of 420 nM.
Under `CCOc1ccc2ncnc(NCc3ccc4c(c3)OCO4)c2c1` [Example 64, 4-(3,4-Methylenedioxybenzyl)amino-6-ethoxyquinazoline] stands 380 nM; under `N#Cc1ccc2ncnc(NCc3ccc4nc[nH]c4c3)c2c1` [Example 67, 4-(Benzimidazol-5-yl)methylamino-6-cyanoquinazoline], 140 nM; under `CCOC(=O)c1ccc2ncnc(NCc3ccc4c(c3)OCO4)c2c1` [Example 68, 4-(3,4-Methylenedioxybenzyl)amino-6-ethoxycarbonylquinazoline], 620 nM.
Then `Cc1ccc2ncnc(NCc3ccc4c(c3)OCO4)c2c1` [Example 69, 4-(3,4-Methylenedioxybenzyl)amino-6-methylquinazoline], with 190 nM.
Then `COc1cc(OC)c2ncnc(NCc3ccc4c(c3)OCO4)c2c1` [Example 71, 4-(3,4-Methylenedioxybenzyl)amino-6,8-dimethoxyquinazoline], with 810 nM.
Turning to `COc1ccc2ncnc(NCc3ccc4c(c3)OCO4)c2c1OC` [Example 72, 4-(4-Methylenedioxybenzyl)amino-5,6-dimethoxyquinazoline], the IC50 was 730 nM.
Then `COc1cc2ncnc(NCc3ccc4c(c3)OCO4)c2cc1NC(C)=O` [Example 73, 4-(3,4-Methylenedioxybenzyl)amino-6-acetamido-7-methoxyquinazoline], with 940 nM; and `COc1cc2ncnc(NCc3ccc4c(c3)OCO4)c2cc1SC` [Example 74, 4-(34-Methylenedioxybenzyl)amino-6-methylthio-7-methoxyquinazoline], with 350 nM.
Under `c1ccc2cc3c(NCc4ccc5c(c4)OCO5)ncnc3cc2c1` [Example 78, 4-(3,4-Methylenedioxybenzyl)aminobenzo[g]quinazoline] stands 500 nM; under `COc1cc2c(NCc3ccc4c(c3)OCO4)nc(C)nc2c(OC)c1OC` [Example 81, 2-Methyl-4-(3,4-methylenedioxybenzyl)amino-6,7,8-trimethoxyquinazoline], 440 nM.
Under `COc1ccc2nc(C(C)C)nc(NCc3ccc4c(c3)OCO4)c2c1` [Example 82, 2-Isopropyl-4-(3,4-methylenedioxybenzyl)amino-6-methoxyquinazoline] stands 550 nM; under `CCCOc1ccccc1-c1nc(NCc2ccc3c(c2)OCO3)c2cc(Cl)ccc2n1` [Example 83, 2-(2-Propoxyphenyl)-4-(3,4-methylenedioxybenzyl)amino-6-chloroquinazoline], 24 nM; under `CCCOc1ccccc1-c1nc(NCc2ccc3c(c2)OCO3)c2ccccc2n1` [Example 84, 2-(2-Propoxyphenyl)-4-(3,4-methylenedioxybenzyl)aminoquinazoline], 220 nM.
Turning to `COc1ccc2nc(OC)nc(NCc3ccc4c(c3)OCO4)c2c1` [Example 89, 2,6-Dimethoxy-4-(3,4-methylenedioxybenzyl)aminoquinazoline], the IC50 came out at 160 nM.
Then `COc1ccc2nc(OCc3ccccc3)nc(NCc3ccc4c(c3)OCO4)c2c1` [Example 91, 2-Benzyloxy-4-(4-methylenedioxybenzyl)amino-6-methoxyquinazoline], with 36 nM; and `Clc1ccc2nc(Cl)nc(NCc3ccc4c(c3)OCO4)c2c1` [Example 92, 2,6-Dichloro-4-(3,4-methylenedioxybenzyl)aminoquinazoline], with 94 nM.
Under `N#Cc1ccc2nc(Cl)nc(NCc3ccc4c(c3)OCO4)c2c1` [Example 93, 2-Chloro-4-(3,4-methylenedioxybenzyl)amino-6-cyanoquinazoline] stands 32 nM; under `COc1cc2c(NCc3ccc4c(c3)OCO4)nc(Cl)nc2c(OC)c1OC` [Example 95, 2-Chloro-4-(3,4-methylenedioxybenzyl)amino-6,7,8-trimethoxyquinazoline], 200 nM; under `COc1cc2nc(Cl)nc(NCc3ccc4c(c3)OCO4)c2cc1OC` [Example 97], 790 nM.
Then `COc1ccc2nc(Cl)nc(NCc3ccc4c(c3)OCO4)c2c1` [Example 98, 2-Chloro-4-(3,4-methylenedioxybenzyl)amino-6-methoxyquinazoline], with 62 nM; and `N#Cc1ccc2nc(Cl)nc(NCc3ccc4nc[nH]c4c3)c2c1` [Example 104, 2-Chloro-4-(benzimidazol-5-yl)methylamino-6-cyanoquinazoline], with 10 nM; and `COc1cc2c(N(CCO)Cc3ccc4c(c3)OCO4)nc(Cl)nc2c(OC)c1OC` [Example 105, 2-Chloro-4-[N-(2-hydroxyethyl)-(3,4-methylenedioxybenzyl)amino]-6,7,8-trimethoxyquinazoline], with 180 nM.

Source of the values: US5801180A, “Quinazoline derivatives” (priority 1991, dated 1998).
